According to US20220257552A1, “METHODS OF PRESCREENING AND TREATING BREAST CANCERS WITH SELECTIVE ANDROGEN RECEPTOR MODULATORS” (priority 2021, published 2022):
Several values for one entry are separate records, joined by “and”; a condition that tells them apart may be missing. Equal entries are not always repeated.

How the values were obtained:
[1] = tested on: ZR-75-1 breast cancer cells; assay: ZR-75-1 cell proliferation (cell count); type: cell-based; conditions: 6 days, dose response
Protocol: Cells were plated at varying densities in growth medium in 96 well plates. Cells were treated as indicated in the figures and viability measured using sulforhodamine B (SRB) or the number of cells counted using Coulter counter.
Although a few previous reports have shown that MCF-7 cells express AR and respond to AR ligands (Buchanan et al. (2005) Cancer Res 65, 8487-8496), the MCF-7 cell line clone in the study lacks or minimally expresses AR, which is in concordance with other reports (De Amicis et al. (2010) Breast Cancer Res Treat 121, 1-11).

[2] = tested on: ER-positive metastatic breast cancer; assay: Phase 2 trial G200801, 9 mg daily, ER-positive metastatic breast cancer; type: in vivo, human
Text: The goal of this study was to determine the importance of the AR status as a therapeutic target in women with ER-positive metastatic breast cancer (MBC) that had previously responded to hormone therapy. The treatment was continued until disease progression (PD).
CBR will be correlated with AR status of metastatic tumor biopsy.
Female subjects with ER-positive metastatic breast cancer who have previously been treated with up to 3 prior hormonal therapies for the treatment of breast cancer. Subjects must have been treated with and responded to previous adjuvant therapy for ≥3 years or hormonal therapy for metastatic disease for ≥6 months prior to progression. Details of subject selection criteria are presented below:
The primary efficacy analysis was the clinical benefit in subjects with AR-positive breast cancer at 6 months as measured by a modified Response Evaluation Criteria in Solid Tumors (RECIST 1.1) classification. Key secondary endpoints of clinical benefit in all subjects and AR-negative subjects, as well as objective response rate, progression free survival, time to progression, duration of response, incidence of SREs, and time to first SRE in subsets based on AR status (i.e., all subjects, AR-positive subjects, and AR-negative subjects) was also assessed. Effects on CA 27-29, PSA, bone turnover markers, QOL, and libido were assessed as tertiary endpoints.
Clinical benefit in a subject is defined as a complete response [CR], a partial response [PR] or stable disease [SD] as measured by modified RECIST 1.1, which is described in detail below. (Eisenhauer E A et al. New response evaluation criteria in solid tumors: revised RECIST guideline (version 1.1). European Journal of Cancer 45:228-247, 2009).
For subjects with non-measurable (non-target) disease only at baseline, SD was defined as those with non-CR/non-PD combined response. The primary endpoint of the study was to assess the proportion of subjects with clinical benefit (PCB) at 6 months (CR+PR+SD) in subjects with AR-positive breast cancer.

GAR15-13 PDX = assay: GAR15-13 palbociclib-resistant PDX in NSG mice; conditions: mouse, in vivo
Text: (§1) Data were presented as mean values±s.e.m. […] Data represented the mean±s.e.m. of four replicate cell culture wells per condition. […] P values are indicated by gray asterisks, where ****P<0.0001 for all highlighted comparisons.
(§2) Tissue samples from an ER-positive, PR-negative, and HER2-negative (ER^+, PR^−, HER2^−) patient that progressed on (i.e., was resistant to) palbociclib were implanted into animal (NSG mice) models and grown as a patient-derived xenograft (PDX). […] This human tumor model also had amplification of the cyclin D1 (CCND1^Amp) gene which has been implicated as a driver of therapeutic resistance to CDKi. […] This is also observed in other models tested in vitro including a palbociclib resistant MCF-7 (MCF7 palbo^R) line (FIG. 44B).

MCF7 palboR cells = assay: Proliferation of palbociclib resistant MCF-7 cells; type: cell-based; conditions: Formula IX 100 nM, Palb 125 nM
Text: as §1, §2

ER-α = molecular target: T1, ER-α (Rattus norvegicus, UniProt P06211); assay: ER-α transactivation in HEK-293 cells; type: cell-based
T1 construct: expressed in transfected cells
T1 sequence (P06211 whole entry): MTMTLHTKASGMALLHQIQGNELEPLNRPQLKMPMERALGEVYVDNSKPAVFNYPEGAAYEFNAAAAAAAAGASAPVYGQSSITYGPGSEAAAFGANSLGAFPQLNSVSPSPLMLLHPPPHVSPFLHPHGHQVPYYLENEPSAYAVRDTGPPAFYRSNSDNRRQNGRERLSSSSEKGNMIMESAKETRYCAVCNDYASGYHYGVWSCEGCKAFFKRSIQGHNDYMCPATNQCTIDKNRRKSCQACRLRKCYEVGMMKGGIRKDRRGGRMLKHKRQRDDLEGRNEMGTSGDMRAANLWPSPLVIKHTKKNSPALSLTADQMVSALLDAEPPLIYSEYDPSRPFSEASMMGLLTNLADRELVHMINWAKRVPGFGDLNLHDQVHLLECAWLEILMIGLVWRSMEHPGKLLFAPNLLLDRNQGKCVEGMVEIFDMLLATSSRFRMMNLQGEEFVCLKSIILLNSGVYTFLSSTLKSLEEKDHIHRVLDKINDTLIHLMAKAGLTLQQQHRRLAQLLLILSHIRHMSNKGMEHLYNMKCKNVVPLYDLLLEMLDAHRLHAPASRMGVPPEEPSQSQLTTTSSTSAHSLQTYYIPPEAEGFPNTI
Protocol: Rat GR, MR, PR, ER-α and ER-β were individually cloned into a pCR3.1 vector backbone. Sequencing was performed to verify the absence of any mutations. HEK-293 cells were plated at 90,000 cells per well of a 24 well plate in Dulbecco's Minimal Essential Media supplemented with 5% charcoal-stripped FBS. […] Luciferase assays were performed 48 h after transfection. Transcriptional activation values are represented as firefly luciferase normalized to renilla luciferase.

C[C@](O)(COc1ccc(C#N)cc1)C(=O)Nc1ccc(C#N)c(C(F)(F)F)c1 [Formula IX, (S)—N-(4-Cyano-3-(trifluoromethyl)phenyl)-3-(4-cyanophenoxy)-2-hydroxy-2-methylpropanamide]
proliferation [1]: significantly reduced dose dependently | AR-positive patients with clinical benefit at 6 months (primary endpoint) ([2]; 9 mg daily): 6/17 | CR or PR ([2]; 9 mg daily): no CR or PR has been observed | median duration of SD as best response ([2]; 9 mg daily): 212 days | patients with PSA increase ([2]; 9 mg daily): 20 of the 22 | tolerability ([2]; 9 mg daily): well-tolerated | subjects with clinical benefit (SD) at 6 months ([2]; 9 mg once daily, all subjects): Seven out of twenty-two | tolerability ([2]; 9 mg, no virilization, hematocrit increase or liver toxicity): well tolerated | A-fib ([2]; AE count, 9 mg daily): 1 | anxiety/emotional changes ([2]; AE count, 9 mg daily): 5 | arthralgia ([2]; AE count, 9 mg daily): 6 | bloating ([2]; AE count, 9 mg daily): 2 | bruising ([2]; AE count, 9 mg daily): 1 | cellulitis ([2]; AE count, 9 mg daily): 1 | chills ([2]; AE count, 9 mg daily): 1 | constipation ([2]; AE count, 9 mg daily): 2 | cough ([2]; AE count, 9 mg daily): 1 | dehydration ([2]; AE count, 9 mg daily): 1 | diarrhea ([2]; AE count, 9 mg daily): 3 | dizziness ([2]; AE count, 9 mg daily): 2 | dysgeusia ([2]; AE count, 9 mg daily): 1 | dyspepsia ([2]; AE count, 9 mg daily): 1 | dyspnea ([2]; AE count, 9 mg daily): 3 | edema ([2]; AE count, 9 mg daily): 2 | fatigue ([2]; AE count, 9 mg daily): 14 | fever ([2]; AE count, 9 mg daily): 1 | flatulence ([2]; AE count, 9 mg daily): 1 | glaucoma ([2]; AE count, 9 mg daily): 1 | headache ([2]; AE count, 9 mg daily): 4 | hot flash night sweats ([2]; AE count, 9 mg daily): 7 | hypertension ([2]; AE count, 9 mg daily): 2 | infection ([2]; AE count, 9 mg daily): 1 | insomnia ([2]; AE count, 9 mg daily): 2 | myalgia ([2]; AE count, 9 mg daily): 5 | nail discoloration ([2]; AE count, 9 mg daily): 1 | nausea ([2]; AE count, 9 mg daily): 11 | pain ([2]; AE count, 9 mg daily): 22 | paresthesia ([2]; AE count, 9 mg daily): 1 | pleural effusion ([2]; AE count, 9 mg daily): 1 | polyuria ([2]; AE count, 9 mg daily): 1 | post menopausal bleeding ([2]; AE count, 9 mg daily): 3 | stiffness ([2]; AE count, 9 mg daily): 1 | tendonitis ([2]; AE count, 9 mg daily): 1 | vision changes ([2]; AE count, 9 mg daily): 3 | vomiting ([2]; AE count, 9 mg daily): 2 | weight gain ([2]; AE count, 9 mg daily): 2 | weight loss ([2]; AE count, 9 mg daily): 2 | subjects with CB as best response ([2]; all subjects (9/22)): 41% | Current Disposition ([2]; individual patients): D/C (2×) and Deceased (4×) | Days on Study ([2]; individual patients): 255 Days and 105 Days and 7 Days and 18 Days and 158 Days and 308 Days and 52 Days and 63 Days and 230 Days and 84 Days (3×) and 252 Days and 28 Days and 239 Days and 86 Days and 202 Days and 190 Days and 99 Days and 137 Days and 100 Days and 91 Days | Day 84 RECIST ([2]; individual patients, 9 mg daily): D/C SAE and PD SAE and D/C | tumor regression ([2]; one subject with SD): 27% | tumor growth response (GAR15-13 PDX): responsive | anti-proliferative activity (MCF7 palboR cells): modest activity

C[C@](O)(COc1ccc(C#N)cc1)C(=O)Nc1ccc(C#N)c(Cl)c1 [Formula VIII, (S)—N-(3-chloro-4-cyanophenyl)-3-(4-cyanophenoxy)-2-hydroxy-2-methylpropanamide]
17β-estradiol-induced ER-α activity, antagonist mode (ER-α; co-incubation): failed to alter | ERα-mediated transactivation, agonist mode (ER-α; highest tested concentration 1 μM): failed to activate
